The values below come from publication PMC8138761 (The Journal of Biological Chemistry, 2021).

Format in all cases: biochemical
What all share (conditions): read-out: % inhibition at 10 μM

In assay [1] the target is T1, serine/threonine protein kinase-3 (MST2) (Homo sapiens, UniProt Q13188).
T1 sequence (Q13188 1-491): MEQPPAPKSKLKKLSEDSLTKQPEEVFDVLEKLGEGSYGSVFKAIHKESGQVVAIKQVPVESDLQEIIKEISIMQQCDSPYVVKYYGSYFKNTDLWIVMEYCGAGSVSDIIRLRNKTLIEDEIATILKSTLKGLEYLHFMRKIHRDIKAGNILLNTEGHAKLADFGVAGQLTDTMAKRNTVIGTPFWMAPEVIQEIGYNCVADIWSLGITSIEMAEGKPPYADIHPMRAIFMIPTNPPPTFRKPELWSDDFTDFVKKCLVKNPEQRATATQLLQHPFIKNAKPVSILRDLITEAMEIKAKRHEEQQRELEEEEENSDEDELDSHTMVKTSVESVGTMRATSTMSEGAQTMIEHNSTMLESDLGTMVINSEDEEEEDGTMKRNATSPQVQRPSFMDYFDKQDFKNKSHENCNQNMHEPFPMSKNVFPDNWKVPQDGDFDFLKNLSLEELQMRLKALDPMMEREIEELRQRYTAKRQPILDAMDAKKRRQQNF
The experiment in a line: in vitro FRET kinase profiling at […], duplicate.

Assay [2] has as its target T2, serine/threonine protein kinase-4 (MST1) (Homo sapiens, UniProt Q13043).
T2 sequence (Q13043 1-487): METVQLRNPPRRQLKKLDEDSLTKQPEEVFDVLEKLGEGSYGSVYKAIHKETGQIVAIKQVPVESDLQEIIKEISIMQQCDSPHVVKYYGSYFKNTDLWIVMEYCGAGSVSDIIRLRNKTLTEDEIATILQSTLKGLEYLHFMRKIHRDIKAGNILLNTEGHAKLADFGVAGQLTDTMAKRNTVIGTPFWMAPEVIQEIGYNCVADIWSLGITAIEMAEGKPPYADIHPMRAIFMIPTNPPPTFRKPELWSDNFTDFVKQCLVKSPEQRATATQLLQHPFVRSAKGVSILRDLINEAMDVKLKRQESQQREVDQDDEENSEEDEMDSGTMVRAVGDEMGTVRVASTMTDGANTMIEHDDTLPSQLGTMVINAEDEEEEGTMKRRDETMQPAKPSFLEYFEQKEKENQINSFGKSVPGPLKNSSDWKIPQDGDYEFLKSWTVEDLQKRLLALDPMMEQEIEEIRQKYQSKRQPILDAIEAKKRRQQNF
The experiment in a line: in vitro FRET kinase profiling at […], duplicate.

Assay [3] has as its target cyclin-dependent kinase 5 (CDK5) (Homo sapiens, UniProt Q00535). Put plainly: in vitro FRET kinase profiling at […], duplicate.
The target in assay [4] is glycogen synthase kinase 3-beta (GSK3-β) (Homo sapiens, UniProt P49841). Put plainly: in vitro FRET kinase profiling.
Chain of glycogen synthase kinase 3-beta (GSK3-β) (P49841 whole entry): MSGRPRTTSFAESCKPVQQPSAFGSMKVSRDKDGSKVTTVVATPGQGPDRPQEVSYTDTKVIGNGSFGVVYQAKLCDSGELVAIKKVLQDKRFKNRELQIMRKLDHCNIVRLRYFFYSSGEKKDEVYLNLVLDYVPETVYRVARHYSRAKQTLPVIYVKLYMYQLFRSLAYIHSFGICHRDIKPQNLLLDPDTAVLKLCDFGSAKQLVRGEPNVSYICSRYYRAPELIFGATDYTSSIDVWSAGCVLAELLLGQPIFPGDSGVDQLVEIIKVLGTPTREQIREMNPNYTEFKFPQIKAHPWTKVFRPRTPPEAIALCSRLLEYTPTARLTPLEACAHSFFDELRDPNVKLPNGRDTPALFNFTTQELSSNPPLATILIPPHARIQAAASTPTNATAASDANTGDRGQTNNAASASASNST
In assay [5] the target is cyclin-dependent kinase (CDK) 1 (Homo sapiens, UniProt P06493). The experiment in a line: in vitro FRET kinase profiling at […], duplicate.
Chain of cyclin-dependent kinase (CDK) 1 (P06493 whole entry): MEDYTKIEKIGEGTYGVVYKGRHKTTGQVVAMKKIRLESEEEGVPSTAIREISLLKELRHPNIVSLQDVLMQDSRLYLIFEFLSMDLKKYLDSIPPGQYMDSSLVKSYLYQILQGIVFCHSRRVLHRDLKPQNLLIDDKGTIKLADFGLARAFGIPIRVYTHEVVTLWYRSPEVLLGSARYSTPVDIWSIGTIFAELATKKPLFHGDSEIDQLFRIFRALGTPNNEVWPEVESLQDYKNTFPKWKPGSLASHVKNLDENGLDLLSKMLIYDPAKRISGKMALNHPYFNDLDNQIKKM
Chain of cyclin-dependent kinase (CDK) 1 (P14635 whole entry, further chain): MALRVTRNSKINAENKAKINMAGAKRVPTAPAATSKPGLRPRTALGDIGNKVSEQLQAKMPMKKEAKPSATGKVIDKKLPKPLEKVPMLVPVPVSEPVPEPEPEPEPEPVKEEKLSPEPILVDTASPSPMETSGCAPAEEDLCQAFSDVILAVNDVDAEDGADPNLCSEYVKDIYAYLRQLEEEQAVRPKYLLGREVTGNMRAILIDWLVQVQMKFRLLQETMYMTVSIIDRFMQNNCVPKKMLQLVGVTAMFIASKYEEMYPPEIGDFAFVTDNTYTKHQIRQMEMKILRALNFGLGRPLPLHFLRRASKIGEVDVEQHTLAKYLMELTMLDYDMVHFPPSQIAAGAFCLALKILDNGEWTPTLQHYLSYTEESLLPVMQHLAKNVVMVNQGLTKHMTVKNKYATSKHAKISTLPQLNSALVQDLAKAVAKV
Assay [6] deals with T3, serine/threonine kinase D2 (Homo sapiens, UniProt Q9BZL6).
T3 sequence (Q9BZL6 1-878): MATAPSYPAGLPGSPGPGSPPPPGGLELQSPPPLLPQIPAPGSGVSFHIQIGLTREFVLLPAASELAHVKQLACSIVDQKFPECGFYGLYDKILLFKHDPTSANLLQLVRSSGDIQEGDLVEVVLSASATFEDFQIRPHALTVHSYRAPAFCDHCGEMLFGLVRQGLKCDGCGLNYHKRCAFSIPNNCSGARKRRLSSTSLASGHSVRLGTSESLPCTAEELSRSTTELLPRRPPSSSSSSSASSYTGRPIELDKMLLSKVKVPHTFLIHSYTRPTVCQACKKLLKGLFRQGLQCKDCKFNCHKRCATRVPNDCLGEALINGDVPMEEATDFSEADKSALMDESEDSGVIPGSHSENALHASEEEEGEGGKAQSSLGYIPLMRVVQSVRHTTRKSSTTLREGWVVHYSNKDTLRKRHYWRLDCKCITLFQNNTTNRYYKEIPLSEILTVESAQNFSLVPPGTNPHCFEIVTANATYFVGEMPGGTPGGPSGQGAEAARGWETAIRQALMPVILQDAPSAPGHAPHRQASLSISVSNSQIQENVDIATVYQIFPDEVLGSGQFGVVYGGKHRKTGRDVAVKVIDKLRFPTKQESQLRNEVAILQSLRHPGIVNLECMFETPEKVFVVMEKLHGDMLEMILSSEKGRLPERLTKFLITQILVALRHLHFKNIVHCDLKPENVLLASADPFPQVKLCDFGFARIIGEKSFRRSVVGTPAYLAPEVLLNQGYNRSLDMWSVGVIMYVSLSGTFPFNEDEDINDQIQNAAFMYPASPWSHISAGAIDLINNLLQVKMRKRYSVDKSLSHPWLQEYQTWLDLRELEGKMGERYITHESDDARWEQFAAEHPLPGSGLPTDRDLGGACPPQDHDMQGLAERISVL
Put plainly: in vitro FRET kinase profiling at […], duplicate.

The target of assay [7] is leucine-rich repeat kinase-2 (LRRK2) (Homo sapiens, UniProt Q5S007). The experiment in a line: in vitro FRET kinase profiling at […], duplicate.
Assay [8] deals with T4, checkpoint kinase-1 (CHK1) (Homo sapiens, UniProt O14757).
T4 sequence (O14757 1-476): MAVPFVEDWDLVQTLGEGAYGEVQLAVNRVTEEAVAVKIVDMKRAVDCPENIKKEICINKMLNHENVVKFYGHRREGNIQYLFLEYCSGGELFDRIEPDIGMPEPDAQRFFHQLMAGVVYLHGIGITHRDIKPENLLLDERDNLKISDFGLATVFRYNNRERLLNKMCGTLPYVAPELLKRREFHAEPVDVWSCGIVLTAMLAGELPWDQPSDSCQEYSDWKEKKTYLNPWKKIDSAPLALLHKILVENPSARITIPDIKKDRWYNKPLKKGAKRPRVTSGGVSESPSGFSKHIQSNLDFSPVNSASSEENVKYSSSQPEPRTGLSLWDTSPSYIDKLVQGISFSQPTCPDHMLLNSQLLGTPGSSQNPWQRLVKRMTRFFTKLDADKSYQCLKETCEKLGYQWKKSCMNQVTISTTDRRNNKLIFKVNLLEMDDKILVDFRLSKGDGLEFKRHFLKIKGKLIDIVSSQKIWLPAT
Put plainly: in vitro FRET kinase profiling at […], duplicate.

Assay [9] has as its target checkpoint kinase-2 (CHK2) (Homo sapiens, UniProt O96017). The experiment in a line: in vitro FRET kinase profiling at […], duplicate.
Assay [10] addresses serine/threonine protein kinase-24 (MST3) (Homo sapiens, UniProt Q9Y6E0). The experiment in a line: in vitro FRET kinase profiling at […], duplicate.

Chain of checkpoint kinase-2 (CHK2) (O96017 whole entry): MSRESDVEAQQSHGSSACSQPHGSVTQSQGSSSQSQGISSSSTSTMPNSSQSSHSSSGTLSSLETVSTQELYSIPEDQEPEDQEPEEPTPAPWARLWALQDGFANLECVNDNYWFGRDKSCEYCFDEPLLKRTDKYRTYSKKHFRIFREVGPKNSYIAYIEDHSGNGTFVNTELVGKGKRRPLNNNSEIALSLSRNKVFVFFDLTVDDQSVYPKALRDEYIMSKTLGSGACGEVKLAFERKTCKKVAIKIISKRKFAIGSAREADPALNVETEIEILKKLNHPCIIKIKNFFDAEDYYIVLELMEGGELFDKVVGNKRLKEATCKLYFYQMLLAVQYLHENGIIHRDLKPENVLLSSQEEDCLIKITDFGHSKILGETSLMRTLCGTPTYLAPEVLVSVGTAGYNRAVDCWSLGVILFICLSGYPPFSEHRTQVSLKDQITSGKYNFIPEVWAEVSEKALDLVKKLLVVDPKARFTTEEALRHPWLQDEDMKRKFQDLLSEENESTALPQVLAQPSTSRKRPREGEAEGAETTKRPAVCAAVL
Chain of cyclin-dependent kinase 5 (CDK5) (Q00535 whole entry): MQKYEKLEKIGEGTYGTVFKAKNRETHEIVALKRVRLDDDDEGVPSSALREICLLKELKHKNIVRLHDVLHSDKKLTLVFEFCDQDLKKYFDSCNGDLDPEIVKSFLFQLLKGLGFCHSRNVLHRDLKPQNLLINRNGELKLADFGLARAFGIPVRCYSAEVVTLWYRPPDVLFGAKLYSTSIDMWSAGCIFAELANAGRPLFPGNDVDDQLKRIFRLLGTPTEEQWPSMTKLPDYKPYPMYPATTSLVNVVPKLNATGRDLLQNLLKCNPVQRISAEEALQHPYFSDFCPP
Chain of cyclin-dependent kinase 5 (CDK5) (Q15078 2-307 partner): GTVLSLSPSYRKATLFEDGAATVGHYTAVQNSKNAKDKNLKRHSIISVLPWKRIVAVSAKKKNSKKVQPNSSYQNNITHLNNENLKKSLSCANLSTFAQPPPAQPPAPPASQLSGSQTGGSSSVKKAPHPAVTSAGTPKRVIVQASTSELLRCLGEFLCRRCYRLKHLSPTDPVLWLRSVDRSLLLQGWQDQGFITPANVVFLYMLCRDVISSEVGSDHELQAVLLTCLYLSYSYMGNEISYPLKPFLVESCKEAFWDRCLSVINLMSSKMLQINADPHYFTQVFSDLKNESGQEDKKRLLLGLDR
Chain of serine/threonine protein kinase-24 (MST3) (Q9Y6E0 whole entry): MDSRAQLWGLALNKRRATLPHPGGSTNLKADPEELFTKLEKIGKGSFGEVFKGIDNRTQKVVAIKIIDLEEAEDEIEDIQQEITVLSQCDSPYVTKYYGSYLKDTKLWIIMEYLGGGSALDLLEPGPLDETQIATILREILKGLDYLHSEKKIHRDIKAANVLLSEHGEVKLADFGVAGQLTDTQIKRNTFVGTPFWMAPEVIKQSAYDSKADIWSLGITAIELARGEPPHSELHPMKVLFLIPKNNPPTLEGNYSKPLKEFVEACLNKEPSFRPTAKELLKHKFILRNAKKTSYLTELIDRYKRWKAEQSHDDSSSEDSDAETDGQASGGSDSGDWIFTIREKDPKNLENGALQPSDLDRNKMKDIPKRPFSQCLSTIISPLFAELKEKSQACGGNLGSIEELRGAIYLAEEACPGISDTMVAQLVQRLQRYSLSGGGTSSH

For `Cc1cc(C)c2[nH]c(=O)c(-c3[nH]cnc3-c3ccccc3)cc2c1` [DIPQUO], the inhibition at 10 µM in assay [1] is > 70%; in assay [2], > 70%; in assay [3], > 70%; in assay [4] it was 100%; in [5], > 70%; in assay [6] it was > 70%. In addition, the inhibition at 10 µM in assay [7], in [8], in assay [9] and in assay [10] was > 70% each time.

By inhibition is commonly meant how much of the control response was suppressed.
